Measured values reported in US12275731B2, “Azaindole inhibitors of wild-type and mutant forms of LRRK2” (DANA-FARBER CANCER INSTITUTE, INC., priority 2018, dated 2025).

Assays:
Test in all cases: KinomeScan profiling
Type in all cases: binding
SBK1 = target: T1, SBK1 (Homo sapiens, UniProt Q52WX2); settings: SBK1, 1 μM; read-out: % control
T1 construct: purchased KinomeScan® (panel service)
How it was run: (§1)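 Compounds were screened at 1 μM in DMSO across a 468-kinase KinomeScan panel. Binding was expressed as % control, scaled between a positive control (0%) and DMSO (100%) using luminescence signal. A value under 35% counted as active.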

MRCKB = MRCKB (Homo sapiens, UniProt Q9Y5S2); settings: read-out: % control
How it was run: as §1

PAK1 = PAK1 (Homo sapiens, UniProt Q13153); settings: PAK1, 1 μM; read-out: % control
How it was run: as §1

PRKG2 = target: T2, PRKG2 (Homo sapiens, UniProt Q13237); settings: PRKG2, 1 μM; read-out: % control
T2 sequence (Q13237 1-762): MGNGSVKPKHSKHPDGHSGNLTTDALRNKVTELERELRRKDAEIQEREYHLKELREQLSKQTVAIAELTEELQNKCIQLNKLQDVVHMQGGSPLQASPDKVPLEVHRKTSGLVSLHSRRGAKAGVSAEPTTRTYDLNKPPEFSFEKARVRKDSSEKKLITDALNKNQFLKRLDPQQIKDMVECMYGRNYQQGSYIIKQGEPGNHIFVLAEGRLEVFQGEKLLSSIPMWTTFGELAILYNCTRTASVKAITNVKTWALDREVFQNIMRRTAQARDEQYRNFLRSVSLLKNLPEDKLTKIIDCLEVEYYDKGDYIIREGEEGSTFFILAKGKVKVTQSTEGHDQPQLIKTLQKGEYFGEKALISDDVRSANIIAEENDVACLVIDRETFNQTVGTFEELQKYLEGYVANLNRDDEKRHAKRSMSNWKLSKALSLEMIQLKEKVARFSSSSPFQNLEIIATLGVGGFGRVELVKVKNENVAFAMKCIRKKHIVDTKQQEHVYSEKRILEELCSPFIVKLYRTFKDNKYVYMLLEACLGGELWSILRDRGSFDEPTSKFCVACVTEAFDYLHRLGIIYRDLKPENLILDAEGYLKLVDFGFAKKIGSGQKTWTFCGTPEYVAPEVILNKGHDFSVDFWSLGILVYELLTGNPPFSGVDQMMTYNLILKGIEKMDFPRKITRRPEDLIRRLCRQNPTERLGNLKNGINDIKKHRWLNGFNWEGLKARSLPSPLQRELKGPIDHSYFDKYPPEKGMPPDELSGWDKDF
How it was run: as §1

PFTK1 = PFTK1 (Homo sapiens, UniProt O94921); settings: PFTK1, 1 μM; read-out: % control
How it was run: as §1

EPHA4 = EPHA4 (Homo sapiens, UniProt P54764); settings: EPHA4, 1 μM; read-out: % control
How it was run: as §1

PIK3CD = target: T3, PIK3CD (Homo sapiens, UniProt O00329); settings: read-out: % control
T3 construct: purchased KinomeScan® (panel service)
T3 sequence (O00329 1-1044): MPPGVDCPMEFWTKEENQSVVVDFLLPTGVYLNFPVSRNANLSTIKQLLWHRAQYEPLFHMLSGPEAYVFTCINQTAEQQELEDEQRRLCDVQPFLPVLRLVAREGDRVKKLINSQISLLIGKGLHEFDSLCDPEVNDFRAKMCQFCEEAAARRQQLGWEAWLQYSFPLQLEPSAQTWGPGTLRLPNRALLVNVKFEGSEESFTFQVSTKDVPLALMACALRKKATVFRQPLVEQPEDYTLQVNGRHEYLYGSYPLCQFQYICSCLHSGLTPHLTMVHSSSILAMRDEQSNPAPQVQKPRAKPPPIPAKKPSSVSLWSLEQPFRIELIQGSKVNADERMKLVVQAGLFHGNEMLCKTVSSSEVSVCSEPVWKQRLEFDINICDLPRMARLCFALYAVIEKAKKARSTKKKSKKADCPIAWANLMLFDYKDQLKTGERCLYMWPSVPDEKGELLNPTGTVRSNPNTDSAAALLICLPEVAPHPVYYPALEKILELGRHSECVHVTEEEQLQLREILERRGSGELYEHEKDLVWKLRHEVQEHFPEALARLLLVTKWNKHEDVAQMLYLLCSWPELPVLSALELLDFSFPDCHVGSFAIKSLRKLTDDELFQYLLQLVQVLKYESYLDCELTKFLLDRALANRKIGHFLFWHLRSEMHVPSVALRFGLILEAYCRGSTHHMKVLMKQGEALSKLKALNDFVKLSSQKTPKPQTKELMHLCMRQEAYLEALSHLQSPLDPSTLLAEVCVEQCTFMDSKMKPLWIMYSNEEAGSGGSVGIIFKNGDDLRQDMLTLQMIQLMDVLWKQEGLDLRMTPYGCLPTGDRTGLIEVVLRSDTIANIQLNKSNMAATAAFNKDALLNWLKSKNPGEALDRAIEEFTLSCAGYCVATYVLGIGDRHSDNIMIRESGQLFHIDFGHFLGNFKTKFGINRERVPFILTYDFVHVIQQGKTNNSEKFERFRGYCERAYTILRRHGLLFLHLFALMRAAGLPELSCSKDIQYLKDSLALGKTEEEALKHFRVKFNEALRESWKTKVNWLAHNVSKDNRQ
How it was run: as §1

ERBB3 = ERBB3 (Homo sapiens, UniProt P21860); settings: ERBB3, 1 μM; read-out: % control
How it was run: as §1

NEK7 = NEK7 (Homo sapiens, UniProt Q8TDX7); settings: NEK7, 1 μM; read-out: % control
How it was run: as §1

MST3 = MST3 (Homo sapiens, UniProt Q9Y6E0); settings: MST3, 1 μM; read-out: % control
How it was run: as §1

[1] = target: T4, RPS6KA5(Kin.Dom.2-C-terminal) (Homo sapiens, UniProt O75582); settings: read-out: % control
T4 construct: RPS6KA5(Kin.Dom.2-C-terminal)
How it was run: as §1

[2] = target: T5, RSK3(Kin.Dom.1-N-terminal) (Homo sapiens, UniProt Q15349); settings: read-out: % control
T5 construct: RSK3(Kin.Dom.1-N-terminal)
How it was run: as §1

DDR1 = DDR1 (Homo sapiens, UniProt Q08345); settings: DDR1, 1 μM; read-out: % control
How it was run: as §1

EPHA4, sequence (P54764 20-986): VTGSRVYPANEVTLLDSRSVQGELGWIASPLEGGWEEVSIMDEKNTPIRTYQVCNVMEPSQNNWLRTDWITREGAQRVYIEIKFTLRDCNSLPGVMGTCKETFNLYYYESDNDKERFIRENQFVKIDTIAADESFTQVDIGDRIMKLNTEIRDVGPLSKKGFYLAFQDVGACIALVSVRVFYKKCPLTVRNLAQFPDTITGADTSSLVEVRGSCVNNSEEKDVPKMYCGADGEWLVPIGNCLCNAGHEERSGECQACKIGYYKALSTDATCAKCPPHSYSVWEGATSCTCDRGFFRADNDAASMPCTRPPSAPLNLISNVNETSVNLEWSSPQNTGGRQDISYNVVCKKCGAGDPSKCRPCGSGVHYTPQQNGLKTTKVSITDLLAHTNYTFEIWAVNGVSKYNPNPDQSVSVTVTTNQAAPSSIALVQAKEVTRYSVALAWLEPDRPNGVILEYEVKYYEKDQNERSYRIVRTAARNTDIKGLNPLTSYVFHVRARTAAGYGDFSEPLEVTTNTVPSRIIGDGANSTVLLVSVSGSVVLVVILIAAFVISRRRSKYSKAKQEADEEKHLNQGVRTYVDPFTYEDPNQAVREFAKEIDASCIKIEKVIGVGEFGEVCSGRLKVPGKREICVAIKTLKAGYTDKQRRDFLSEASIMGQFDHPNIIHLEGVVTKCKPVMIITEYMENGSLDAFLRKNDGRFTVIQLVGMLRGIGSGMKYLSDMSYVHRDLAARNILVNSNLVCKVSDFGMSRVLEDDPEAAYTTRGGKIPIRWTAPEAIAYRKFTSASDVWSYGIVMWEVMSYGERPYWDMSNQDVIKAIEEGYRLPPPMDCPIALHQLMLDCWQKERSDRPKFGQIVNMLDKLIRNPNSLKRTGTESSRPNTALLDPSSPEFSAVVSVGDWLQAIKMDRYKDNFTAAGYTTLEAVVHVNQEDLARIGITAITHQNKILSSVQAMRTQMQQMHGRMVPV
T5 sequence (Q15349 59-318 limits assumed): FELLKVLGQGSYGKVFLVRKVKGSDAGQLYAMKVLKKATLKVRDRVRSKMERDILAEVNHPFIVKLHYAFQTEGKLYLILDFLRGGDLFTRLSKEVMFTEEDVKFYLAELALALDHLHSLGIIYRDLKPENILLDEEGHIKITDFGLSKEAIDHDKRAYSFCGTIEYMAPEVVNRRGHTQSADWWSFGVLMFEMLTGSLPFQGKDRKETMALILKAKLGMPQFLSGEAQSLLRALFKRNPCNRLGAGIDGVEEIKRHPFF
T4 sequence (O75582 426-687 limits assumed): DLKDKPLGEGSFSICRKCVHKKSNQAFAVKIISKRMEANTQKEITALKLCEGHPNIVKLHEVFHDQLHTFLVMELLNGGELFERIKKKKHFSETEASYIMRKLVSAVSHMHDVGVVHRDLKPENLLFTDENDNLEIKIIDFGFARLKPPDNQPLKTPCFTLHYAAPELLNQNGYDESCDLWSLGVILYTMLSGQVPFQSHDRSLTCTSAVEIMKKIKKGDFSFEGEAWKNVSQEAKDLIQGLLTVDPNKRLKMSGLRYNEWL
DDR1, sequence (Q08345 19-913): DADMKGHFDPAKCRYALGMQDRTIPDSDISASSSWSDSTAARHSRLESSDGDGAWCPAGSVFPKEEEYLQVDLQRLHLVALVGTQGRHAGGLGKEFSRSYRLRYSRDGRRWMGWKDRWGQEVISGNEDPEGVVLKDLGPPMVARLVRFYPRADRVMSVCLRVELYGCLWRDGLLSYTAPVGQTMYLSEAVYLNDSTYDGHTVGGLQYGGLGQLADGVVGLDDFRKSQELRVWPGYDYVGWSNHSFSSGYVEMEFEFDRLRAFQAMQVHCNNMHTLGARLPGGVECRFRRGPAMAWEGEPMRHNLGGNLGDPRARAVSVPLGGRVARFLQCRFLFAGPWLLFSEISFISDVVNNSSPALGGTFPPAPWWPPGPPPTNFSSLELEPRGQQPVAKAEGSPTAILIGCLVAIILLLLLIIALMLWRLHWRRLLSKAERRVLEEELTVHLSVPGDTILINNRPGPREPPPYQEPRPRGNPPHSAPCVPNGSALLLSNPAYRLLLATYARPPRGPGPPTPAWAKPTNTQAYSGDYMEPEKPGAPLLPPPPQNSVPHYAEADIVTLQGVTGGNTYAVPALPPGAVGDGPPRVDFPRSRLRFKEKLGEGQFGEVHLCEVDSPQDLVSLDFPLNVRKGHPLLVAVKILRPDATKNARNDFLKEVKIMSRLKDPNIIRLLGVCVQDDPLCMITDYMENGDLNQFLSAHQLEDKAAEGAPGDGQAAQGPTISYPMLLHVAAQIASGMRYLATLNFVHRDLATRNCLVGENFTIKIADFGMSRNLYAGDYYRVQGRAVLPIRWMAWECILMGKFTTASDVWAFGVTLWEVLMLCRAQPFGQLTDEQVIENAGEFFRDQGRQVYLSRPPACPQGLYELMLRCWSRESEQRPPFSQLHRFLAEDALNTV
PAK1, sequence (Q13153 whole entry): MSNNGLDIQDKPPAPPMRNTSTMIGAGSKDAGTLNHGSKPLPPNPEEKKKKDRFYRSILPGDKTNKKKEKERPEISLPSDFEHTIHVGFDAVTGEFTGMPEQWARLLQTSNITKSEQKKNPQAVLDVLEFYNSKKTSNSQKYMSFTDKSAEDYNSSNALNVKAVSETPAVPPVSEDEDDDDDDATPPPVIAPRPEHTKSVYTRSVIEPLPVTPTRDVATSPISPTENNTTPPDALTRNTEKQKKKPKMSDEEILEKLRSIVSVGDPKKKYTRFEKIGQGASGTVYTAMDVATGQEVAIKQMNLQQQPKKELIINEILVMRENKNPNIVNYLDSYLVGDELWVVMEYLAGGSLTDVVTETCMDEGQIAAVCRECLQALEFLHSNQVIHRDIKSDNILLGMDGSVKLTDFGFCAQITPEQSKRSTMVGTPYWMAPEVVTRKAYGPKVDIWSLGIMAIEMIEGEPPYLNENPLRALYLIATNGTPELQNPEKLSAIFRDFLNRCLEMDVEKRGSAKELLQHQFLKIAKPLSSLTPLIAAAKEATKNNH
MST3, sequence (Q9Y6E0 whole entry): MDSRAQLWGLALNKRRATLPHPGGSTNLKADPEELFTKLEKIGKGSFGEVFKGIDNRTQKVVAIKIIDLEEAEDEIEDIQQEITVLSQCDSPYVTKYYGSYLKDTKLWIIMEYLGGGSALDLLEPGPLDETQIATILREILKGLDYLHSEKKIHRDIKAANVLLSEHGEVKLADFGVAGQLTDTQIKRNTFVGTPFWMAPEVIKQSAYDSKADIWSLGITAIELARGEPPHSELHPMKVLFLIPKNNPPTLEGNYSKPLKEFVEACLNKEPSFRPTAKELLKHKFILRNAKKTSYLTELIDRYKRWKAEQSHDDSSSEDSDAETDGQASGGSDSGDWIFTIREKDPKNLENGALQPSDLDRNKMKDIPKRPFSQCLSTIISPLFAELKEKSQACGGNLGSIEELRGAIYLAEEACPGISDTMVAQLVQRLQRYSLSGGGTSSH
T1 sequence (Q52WX2 whole entry): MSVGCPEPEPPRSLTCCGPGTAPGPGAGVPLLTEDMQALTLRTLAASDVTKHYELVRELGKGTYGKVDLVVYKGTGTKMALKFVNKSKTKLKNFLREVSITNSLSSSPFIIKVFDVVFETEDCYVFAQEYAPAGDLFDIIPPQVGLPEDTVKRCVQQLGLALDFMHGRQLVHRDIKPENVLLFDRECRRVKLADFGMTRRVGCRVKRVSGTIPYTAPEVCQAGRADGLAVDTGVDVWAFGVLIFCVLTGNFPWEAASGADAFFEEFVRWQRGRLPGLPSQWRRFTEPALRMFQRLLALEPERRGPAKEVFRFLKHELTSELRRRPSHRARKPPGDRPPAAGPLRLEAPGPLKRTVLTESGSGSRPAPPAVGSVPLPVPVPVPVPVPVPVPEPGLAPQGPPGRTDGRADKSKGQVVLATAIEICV
NEK7, sequence (Q8TDX7 whole entry): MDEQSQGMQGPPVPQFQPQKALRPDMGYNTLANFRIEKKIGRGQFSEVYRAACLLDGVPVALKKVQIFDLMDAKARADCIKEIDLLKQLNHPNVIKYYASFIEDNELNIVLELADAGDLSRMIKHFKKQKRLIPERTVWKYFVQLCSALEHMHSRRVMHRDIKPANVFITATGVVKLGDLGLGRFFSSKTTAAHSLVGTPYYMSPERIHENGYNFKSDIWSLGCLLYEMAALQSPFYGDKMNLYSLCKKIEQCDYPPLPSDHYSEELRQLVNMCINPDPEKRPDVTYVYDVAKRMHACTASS
PFTK1, sequence (O94921 whole entry): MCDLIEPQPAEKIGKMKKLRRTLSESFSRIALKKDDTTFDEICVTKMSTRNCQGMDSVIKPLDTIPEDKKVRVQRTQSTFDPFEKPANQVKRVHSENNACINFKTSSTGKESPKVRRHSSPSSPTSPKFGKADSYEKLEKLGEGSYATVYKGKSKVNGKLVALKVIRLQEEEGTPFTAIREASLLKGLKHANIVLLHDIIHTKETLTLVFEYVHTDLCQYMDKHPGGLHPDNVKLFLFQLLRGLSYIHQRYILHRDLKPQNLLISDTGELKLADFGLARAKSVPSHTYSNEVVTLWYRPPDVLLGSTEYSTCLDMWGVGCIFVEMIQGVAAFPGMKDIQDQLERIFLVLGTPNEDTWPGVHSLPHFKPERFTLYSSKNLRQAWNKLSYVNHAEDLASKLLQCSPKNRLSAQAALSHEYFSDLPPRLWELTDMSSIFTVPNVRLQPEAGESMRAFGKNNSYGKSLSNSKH

Row | Compound | remaining binding at 1 µM (SBK1) | remaining binding at 1 µM (MRCKB) | remaining binding at 1 µM (PAK1) | remaining binding at 1 µM (PRKG2) | remaining binding at 1 µM (PFTK1) | remaining binding at 1 µM (EPHA4) | remaining binding at 1 µM (PIK3CD) | remaining binding at 1 µM (ERBB3) | remaining binding at 1 µM (NEK7) | remaining binding at 1 µM (MST3) | remaining binding at 1 µM [1] | remaining binding at 1 µM [2] | remaining binding at 1 µM (DDR1)
1 | CNc1c(-c2ccc(C(=O)N3CCC(N4CCOCC4)CC3)cc2)cnc2[nH]cc(Cl)c12 [Compound 96, (4-(3-chloro-4-(methylamino)-1H-pyrrolo[2,3-b]pyridin-5-yl)phenyl)(4-morpholinopiperidin-1-yl)methanone] | 63% | 93% | 99% | 100% | 100% | 100% | 84% | 86% | 100% | 74% | 100% | 78% | 100%
2 | O=C(c1ccc(-c2cnc3[nH]cc(Cl)c3c2NC2CCCC2)cc1)N1CCC(N2CCOCC2)CC1 [Compound 101, (4-(3-chloro-4-(cyclopentylamino)-1H-pyrrolo[2,3-b]pyridin-5-yl)phenyl)(4-morpholinopiperidin-1-yl)methanone] | 67% | 82% | 100% | 100% | 100% | 88% | 100% | 55% | 95% | 86% | 96% | 66% | 61%
3 | CNc1c(-c2cnn([C@H]3CCN(C(C)=O)C[C@@H]3F)c2)cnc2[nH]cc(Cl)c12 [Compound 77, 1-((3S,4S)-4-(4-(3-chloro-4-(methylamino)-1H-pyrrolo[2,3-b]pyridin-5-yl)-1H-pyrazol-1-yl)-3-fluoropiperidin-1-yl)ethan-1-one] | 44% | 86% | 99% | 100% | 100% | 96% | 85% | 88% | 100% | 72% | 100% | 80% | 100%
